Source: article PMC11050952 (Marine Drugs, 2024)
Several values for one entry are separate records, joined by “and”; a condition that tells them apart may be missing. Equal entries are not always repeated. Entries after “also recorded” stand apart in the source; their conditions may differ. Where two headings read alike, the source gives them in different places.

What was measured:
Neuro-2a cells = conditions: cited from earlier work
[1] = test system: Nav currents in Neuro-2a cells (voltage-gated sodium channels, VGSCs); assay type: cell-based, murine
[2] = read-out: IC50 (inhibition of Nav currents)

**Q.** Which “Toxicity equivalency factor (TEF)” value (Neuro-2a cells) does the source give for `C[C@@H]1C[C@@H]2[C@@H](O)N=C(N)N[C@]23[C@H](O)C(=O)O[C@H]1[C@H]3O` [5,6,11-trideoxyTTX] here?
**A.** 0.011

**Q.** For `CCN(CC)CC(=O)Nc1c(C)cccc1C` [Lidocaine, lidocaine], which IC50 [1, 2] is on record?
**A.** 717000 nM

**Q.** What does the source list for `NC1=N[C@H](O)[C@H]2[C@H]3O[C@]4(O)O[C@@H]([C@@H](O)[C@@]2(N1)[C@@H]4O)[C@]3(O)CO` [TTX, Tetrodotoxin]?
**A.** Hill Slope [1]: 0.997 ± 0.068 and 0.910 ± 0.120 and 1.167 ± 0.204 and 0.801 ± 0.149 and 1.089 ± 0.097; Reversibility of Nav current blockage [1]: could be reversed; TTX concentration giving 20% blockade (minimum detectable blockade) [1]: 0.5 ng/mL; Inhibition of Nav currents ([1]; 0.1 µM): completely inhibited; also recorded: complete inhibitions; IC50 ([1]; read-out: IC50 (blockade of Nav currents)): 6.4 nM; IC50 ([1]; read-out: IC50 Value): 4.93 nM and 5.02 nM and 5.12 nM and 4.26 nM and 6.38 nM

**Q.** Which IC50 [1, 2] does the source give for `CCCCNc1ccc(C(=O)OCCN(C)C)cc1` [tetracaine] here?
**A.** 22500 nM
